In patent US11932629B2, “KDM1A inhibitors for the treatment of disease” (Imago Biosciences, Inc., priority 2018, dated 2024):

Biological target: LSD1 (Homo sapiens, UniProt O60341)
Experiment: LSD1 fluorescence coupling enzyme assay (HRP/Amplex Red), 10-dose IC50 mode
Format: biochemical
Settings: 10-dose IC50 mode, 3-fold serial dilution in duplicate starting at 100 μM; 10 μM histone H3(1-21)K4me2 peptide substrate; read-out: RB LSD1 ave
Experimental: Compounds were tested in a 10-dose IC50 mode fluorescence coupling enzyme assay with 3-fold serial dilution in duplicate starting at 100 μM. The production of FAD-dependent H2O2 as a result of demethylase activity of LSD1 on 10 μM histone H3(1-21)K4me2 peptide substrate was measured by coupling with HRP and Amplex Red to yield resorufin (fluorescence measured at Ex/Em=535/590 nm on EnVision, Perkin Elmer).

IC50 [nM] | SMILES
28 | CN1CCN(c2nc(CCCN[C@@H]3C[C@H]3c3ccc(F)cc3)c[nH]c2=O)CC1 [Example 2, 5-[3-([(1R,2S)-2-(4-fluorophenyl)cyclopropyl]amino)propyl] 3-[4-methylpiperazin-1-yl]-pyrazin-2(1H)-one]
7 | CS(=O)(=O)N1CCN(c2nc(CCCN[C@@H]3C[C@H]3c3ccc(F)cc3)c[nH]c2=O)CC1 [Example 3, 5-[3-([(1R,2S)-2-(4-fluorophenyl)cyclopropyl]amino)propyl]-3-[4-(methylsulfonyl)piperazin-1-yl]pyrazin-2(1H)-one]
7 | O=c1[nH]cc(CCCN[C@@H]2C[C@H]2c2ccc(F)cc2)nc1N1CCOCC1 [Example 4, 5-[3-([(1R,2S)-2-(4-fluorophenyl)cyclopropyl]amino)propyl]-3-morpholinopyrazin-2(1H)-one]
12 | O=c1[nH]cc(CCCN[C@@H]2C[C@H]2c2ccc(F)cc2)nc1N1CCC1 [Example 5, 3-[Azetidin-1-yl]-5-[3-([(1R,2S)-2-(4-fluorophenyl)cyclopropyl]amino)propyl]-pyrazin-2(1H)-one]
48 | O=c1c(N2CCS(=O)(=O)CC2)nc(CCCN[C@@H]2C[C@H]2c2ccc(F)cc2)cn1C1CC1 [Example 8, 1-Cyclopropyl-3-[1,1-dioxidothiomorpholino]-5-[3-([(1R,2S)-2-(4-fluorophenyl)cyclopropyl]amino)propyl]pyrazin-2(1H)-one]
6 | O=c1[nH]cc(CCCN[C@@H]2C[C@H]2c2ccccc2)nc1N1CCS(=O)(=O)CC1 [Example 9, 3-(1,1-Dioxidothiomorpholino)-5-(3-(((1R,2S)-2-phenylcyclopropyl)amino)propyl)pyrazin-2(1H)-one]
300 | O=C(O)C1CCN(c2nc(CCCN[C@@H]3C[C@H]3c3ccc(F)cc3)c[nH]c2=O)CC1 [Example 10, 1-[6-(3-[([1R,2S]-2-[4-fluorophenyl]cyclopropyl)amino]propyl)-3-oxo-3,4-dihydropyrazin-2-yl]piperidine-4-carboxylic acid]
10 | CN(C)S(=O)(=O)c1ccc(-n2cc(CCCN[C@@H]3C[C@H]3c3ccc(F)cc3)nc(N3CCNCC3)c2=O)cc1 [Example 14, 4-[5-(3-[([1R,2S]-2-[4-fluorophenyl]cyclopropyl)amino]propyl)-2-oxo-3-(piperazin-1-yl)pyrazin-1(2H)-yl]-N,N-dimethylbenzenesulfonamide]
4 | O=c1c(N2CCNCC2)nc(CCCN[C@@H]2C[C@H]2c2ccc(F)cc2)cn1-c1ccc(F)cc1 [Example 26, 1-[4-Fluorophenyl]-5-[3-([(1R,2S)-2-(4-fluorophenyl)cyclopropyl]amino)propyl]-3-(piperazin-1-yl)pyrazin-2(1H)-one]
17 | O=c1c(N2CCNCC2)nc(CCCN[C@@H]2C[C@H]2c2ccc(F)cc2)cn1-c1ccc(-n2ccnn2)cc1 [Example 27, 1-[4-(1H-1,2,3-triazol-1-yl)phenyl]-5-[3-([(1R,2S)-2-(4-fluorophenyl)-cyclopropyl]amino)propyl]-3-[piperazin-1-yl]pyrazin-2(1H)-one]
6 | O=c1c(N2CCNCC2)nc(CCCN[C@@H]2C[C@H]2c2ccc(F)cc2)cn1-c1ccc(-c2ncccn2)cc1 [Example 28, 5-[3-([(1R,2S)-2-(4-fluorophenyl)cyclopropyl]amino)propyl]-3-[piperazin-1-yl]-1-[4-(pyrimidin-2-yl)phenyl]pyrazin-2(1H)-one]
2 | O=c1c(N2CCNCC2)nc(CCCN[C@@H]2C[C@H]2c2ccc(F)cc2)cn1-c1ccc(-c2cccnn2)cc1 [Example 29, 5-[3-([(1R,2S)-2-(4-fluorophenyl)cyclopropyl]amino)propyl]-3-[piperazin-1-yl]-1-[4-(pyridazin-3-yl)phenyl]pyrazin-2(1H)-one]
2 | CN(C)S(=O)(=O)c1ccc(-n2cc(CCCN[C@@H]3C[C@H]3c3ccc(F)cc3)nc(N3CCN(S(C)(=O)=O)CC3)c2=O)cc1 [Example 30, 4-[5-(3-[[(1R,2S)-2-(4-Fluorophenyl)cyclopropyl]amino]propyl)-3-(4-methanesulfonylpiperazin-1-yl)-2(1H)-oxopyrazin-1-yl]-N,N-dimethylbenzene-1-sulfonamide]
4 | O=c1[nH]cc(CCCN[C@@H]2C[C@H]2c2ccc(F)cc2)nc1N1CCNCC1 [Example 31, 5-[3-([(1R,2S)-2-(4-fluorophenyl)cyclopropyl]amino)propyl]-3-[piperazin-1-yl]pyrazin-2(1H)-one]
9 | O=c1[nH]cc(CCCN[C@@H]2C[C@H]2c2ccc(F)cc2)nc1N1CCS(=O)(=O)CC1 [Example 32, 3-[1,1-Dioxidothiomorpholino]-5-[3-([(1R,2S)-2-(4-fluorophenyl)cyclopropyl]amino)propyl]pyrazin-2(1H)-one]
13 | O=c1c(-c2cn[nH]c2)nc(CCCN[C@@H]2C[C@H]2c2ccc(F)cc2)cn1-c1ccc(F)cc1 [Example 36, 1-[4-fluorophenyl]-5-[3-([(1R,2S)-2-(4-fluorophenyl)cyclopropyl]amino)propyl]-3-[1H-pyrazol-4-yl]pyrazin-2(1H)-one]
24 | CN1CCN(c2nc(CCCN[C@@H]3C[C@H]3c3ccc(F)cc3)c[nH]c2=O)CC1=O [Example 41, 5-[3-([(1R,2S)-2-(4-fluorophenyl)cyclopropyl]amino)propyl]-3-[4-methyl-3-oxopiperazin-1-yl]pyrazin-2(1H)-one]
6 | N#Cc1ccc(-n2cc(CCCN[C@@H]3C[C@H]3c3ccc(F)cc3)nc(N3CC4(COC4)C3)c2=O)cc1 [Example 44, 4-[5-(3-[([1R,2S]-2-[4-fluorophenyl]cyclopropyl)amino]propyl)-2-oxo-3-(2-oxa-6-azaspiro[3.3]heptan-6-yl)pyrazin-1(2H)-yl]benzonitrile]
7 | O=C1CN(c2nc(CCCN[C@@H]3C[C@H]3c3ccc(F)cc3)cn(Cc3ccccc3)c2=O)CCN1 [Example 46, 1-benzyl-5-[3-([(1R,2S)-2-(4-fluorophenyl)cyclopropyl]amino)propyl]-3-[3-oxopiperazin-1-yl]pyrazin-2(1H)-one]
15 | O=C1CN(c2nc(CCCN[C@@H]3C[C@H]3c3ccc(F)cc3)c[nH]c2=O)CCN1 [Example 48, 5-[3-([(1R,2S)-2-(4-fluorophenyl)cyclopropyl]amino)propyl]-3-[3-oxopiperazin-1-yl]pyrazin-2(1H)-one]
